Source: the supplement of paper PMC10307832

Tests used:
Test in all cases: relative viability (nuclei count vs DMSO), 5 days (fraction); higher = more cells survive
[1] = compound: CC(C)N(CCCNC(=O)Nc1ccc(C(C)(C)C)cc1)C[C@H]1O[C@@H](n2ccc3c(N)ncnc32)[C@H](O)[C@@H]1O + Cc1cc(Nc2cc(N3CCN(C)CC3)nc(Sc3ccc(NC(=O)C4CC4)cc3)n2)n[nH]1 [Tozasertib] (partner 0.1 µM)
In short: (§1)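 Medians of duplicate plates are given as relative viability. That measure is the nuclei count in treated wells divided by the count in vehicle wells. Counts were taken on 4× images of lung cancer cell lines in 1536-well plates, 5 days after pin-tool dosing the day after seeding with one drug alone or a fixed anchor-drug dose plus five library-drug doses (not always all listed) in √10 steps.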

Shikonin + Lapatinib = compound: CC(C)=CC[C@@H](O)C1=CC(=O)c2c(O)ccc(O)c2C1=O [Shikonin] + CS(=O)(=O)CCNCc1ccc(-c2ccc3ncnc(Nc4ccc(OCc5cccc(F)c5)c(Cl)c4)c3c2)o1 [Lapatinib] (partner 2 µM)
In short: as §1

[2] = compound: CC(C)N(CCCNC(=O)Nc1ccc(C(C)(C)C)cc1)C[C@H]1O[C@@H](n2ccc3c(N)ncnc32)[C@H](O)[C@@H]1O + O=C(c1cc(Cc2n[nH]c(=O)c3ccccc23)ccc1F)N1CCN(C(=O)C2CC2)CC1 [Olaparib] (partner 8 µM)
In short: as §1

[3] = compound: CC(C)N(CCCNC(=O)Nc1ccc(C(C)(C)C)cc1)C[C@H]1O[C@@H](n2ccc3c(N)ncnc32)[C@H](O)[C@@H]1O + Cc1nc(NC(=O)N2CCC[C@H]2C(N)=O)sc1-c1ccnc(C(C)(C)C(F)(F)F)c1 [Alpelisib] (partner 2 µM)
In short: as §1

Cell Line	relative viability ([1]; first compound 0.08 µM)	relative viability ([1]; first compound 0.253 µM)	relative viability ([1]; first compound 0.8 µM)	relative viability ([1]; first compound 2.53 µM)	relative viability ([1]; first compound 8 µM)	relative viability (Shikonin + Lapatinib; first compound 0.01 µM)	relative viability (Shikonin + Lapatinib; first compound 0.1 µM)	relative viability (Shikonin + Lapatinib; first compound 0.3162 µM)	relative viability (Shikonin + Lapatinib; first compound 1 µM)	relative viability ([2]; first compound 0.08 µM)	relative viability ([2]; first compound 0.253 µM)	relative viability ([2]; first compound 2.53 µM)	relative viability ([2]; first compound 8 µM)	relative viability ([3]; first compound 0.08 µM)	relative viability ([3]; first compound 0.253 µM)	relative viability ([3]; first compound 0.8 µM)	relative viability ([3]; first compound 2.53 µM)	relative viability ([3]; first compound 8 µM)	relative viability ([2]; first compound 0.8 µM)
201T	0.871	0.896	0.974	0.898	0.902	1.05	1.12	1.02	1.05	0.83	0.891	0.809	0.797	1	1.03	1.02	0.98	0.962	
A549						1.08	1.09	1.03	1.1	0.409	0.32	0.535	0.317	0.68	0.848	0.948	0.723	0.659	0.251
A-427	0.2	0.208	0.193	0.204	0.206	1.05	1.37	0.967	1.14	0.71	0.779	0.771	0.702	1.08	1.03	1.11	1.1	1.18	0.613
ABC-1	0.183	0.174		0.183	0.178	1.5	1.28	1.27	1.2	0.69	0.745	1.47	0.8	0.989	1.2		1.12	1.07	
BEN	0.49	0.642	0.485	0.532	0.452	0.654	0.897	0.776	0.768	0.974	1.25	1.03	1.02	0.909	0.93	0.953	0.913	0.989	1.24
CAL-12T	0.326	0.315	0.309	0.293	0.29	0.636	0.632	0.649	0.638	0.735	0.775	0.698	0.723	1.02	1.32	1.26	1	1	0.702
COR-L23	0.208	0.195	0.256	0.23	0.201	1.03	1.07	1.13	1.05	0.297	0.376	0.347	0.29	0.74	0.765	0.791	0.955	0.759	0.365
COR-L 105	0.357	0.357	0.331	0.336	0.316	0.339	0.346	0.318	0.36	0.678	0.724	0.652	0.649	0.733	1.08	1.06	1.02	0.974	0.702
Calu-6						1.16	1.34	1.11	1.16	0.521	0.53	0.552	0.57	0.987	1.01	1.02	1.09	0.984	0.547
ChaGo-K-1	0.242	0.245	0.222	0.209	0.23					0.423	0.413	0.392	0.389						0.431
EBC-1						0.19	0.191	0.213	0.217	0.766	0.746	0.85	0.657	0.749	0.825	0.739	0.848	0.704	0.76
EKVX	0.449	0.347	0.373	0.434	0.388	0.18	0.202	0.214	0.19	0.818	0.83	0.803	0.752	0.908	0.883	0.827	0.855	0.676	0.67
EMC-BAC-2	0.287	0.314	0.285	0.275	0.275	0.939	0.999	0.941	0.923	0.486	0.513	0.389	0.435	0.654	0.753	0.722	0.721	0.706	0.472
EPLC-272H	0.315	0.215	0.287	0.217	0.244	0.869	1.2	1.08	1.22	0.669	0.85	0.734	0.859	0.95	0.912	0.856	1.03	1.03	0.764
H3255	0.735	0.473	0.466	0.457	0.609	0.206	0.258	0.215	0.271	0.552	0.562	0.598	0.517	0.93	0.711	0.662	0.714	0.665	0.555
HARA	0.097	0.13	0.109	0.0913	0.0981	0.888	0.903	0.853	0.77	0.844	0.737	0.538	0.494	0.795	0.744	0.763	0.701	0.779	0.764
HCC-15	0.354	0.542	0.369	0.401	0.337	0.945	0.996	0.918	0.919	0.669	0.754	0.758	0.709	0.79	0.863	0.891	0.93	0.811	0.702
HCC-44	0.99	1.11	0.869	1.01	1.04	1.07	1.07	1.05	1.09	1	1.03	1	0.972	0.811	0.785	0.744	0.787	0.806	0.981
HCC-78	0.371	0.383	0.351	0.366	0.484	0.778	1.07	0.705	1.06	0.885	0.734	0.792	0.804	0.272	0.289	0.323	0.334	0.315	0.691
HCC-366	0.0971	0.163	0.157	0.0768	0.103	1.34	1.24	1.11	1.03	0.336	0.428	0.292	0.281	0.394	0.442	0.366	0.367	0.41	0.328

Cell Line	relative viability ([1]; first compound 0.08 µM)	relative viability ([1]; first compound 0.253 µM)	relative viability ([1]; first compound 0.8 µM)	relative viability ([1]; first compound 2.53 µM)	relative viability ([1]; first compound 8 µM)	relative viability (Shikonin + Lapatinib; first compound 0.01 µM)	relative viability (Shikonin + Lapatinib; first compound 0.1 µM)	relative viability (Shikonin + Lapatinib; first compound 0.3162 µM)	relative viability (Shikonin + Lapatinib; first compound 1 µM)	relative viability ([2]; first compound 0.08 µM)	relative viability ([2]; first compound 0.253 µM)	relative viability ([2]; first compound 2.53 µM)	relative viability ([2]; first compound 8 µM)	relative viability ([3]; first compound 0.08 µM)	relative viability ([3]; first compound 0.253 µM)	relative viability ([3]; first compound 0.8 µM)	relative viability ([3]; first compound 2.53 µM)	relative viability ([3]; first compound 8 µM)	relative viability ([2]; first compound 0.8 µM)
HCC-827	0.423	0.425		0.436	0.412	0.166	0.17	0.191	0.19	0.63	0.706	0.616	0.488	0.922	0.938		0.952	0.919	0.562
HOP-62	0.369	0.375	0.335	0.309	0.367	1.04	1.13	0.908	1.03	0.242	0.642	0.347	0.314	0.997	1.16	0.912	0.971	0.909	0.261
IA-LM						1.11		0.81	0.679	0.776	0.956	0.931	0.686	0.667	0.759	0.787	0.701	0.723	0.937
LC-2-ad	0.475	0.432	0.442	0.485	0.41	0.798	1.38	1.04	0.965	0.67	0.717	0.699	0.626	0.802	0.83	0.992	0.823	0.806	0.715
LCLC-97TM1	0.21	0.17	0.258	0.248	0.21	1.28	0.998	1.09	0.921	0.343	0.318	0.319	0.294	0.251		0.267	0.174	0.222	0.205
LCLC-103H	0.603	0.519	0.432	0.516	0.478					0.734	0.697	0.77	0.775	1.03	0.905	0.907	0.99	0.898	0.699
LK-2	0.159	0.178	0.204	0.195	0.17	1.26	1.06	1.22	1.06	0.713	0.544	0.632	0.82	0.923	1.02	1.01	0.934	1.02	0.771
LOU-NH91	0.635	0.662	0.314	0.682	0.607	0.802	0.839	0.811	0.823	0.886	0.86	0.984	0.899	0.631	0.679		0.753	0.663	
LU99A	0.279	0.316	0.276	0.237	0.261	1.1	1.32	0.881	0.891	0.322	0.252	0.275	0.237	0.477	0.445	0.54	0.555	0.503	0.264
NCI-H441	0.599	0.66		0.716	0.577					0.558	0.632	0.544	0.573		0.653	0.88	0.677	0.712	
NCI-H522	0.538	0.553	0.542	0.588	0.615					0.754	0.636	0.623	0.732						0.583
NCI-H1299						1.01	1.09	0.986	0.936	1.03	0.926	0.96	0.923	1.03	1.03	1.07	1.02	1.04	1
NCI-H1563						0.87	1.08	0.923	0.779					0.991	0.907	1.09	0.973	0.991	
NCI-H1623	0.426	0.452	0.414	0.408	0.45														
NCI-H1648	0.445	0.425	0.534	0.387	0.495					0.866	1	0.909	0.826						1.03
NCI-H1650	0.483	0.358		0.398	0.439	0.758	0.819	0.684	0.757	0.662	0.922	0.642	0.754						0.805
NCI-H1703						1.15	1.33	1.15	0.647	0.52	0.446	0.571	0.349	0.309	0.322	0.304	0.439	0.318	
NCI-H1792						0.922	1.06	0.968	1.09	0.434		0.374	0.399	0.671	0.497	0.688	0.696	0.668	0.365
NCI-H2342	0.57	0.559	0.415	0.472	0.56					0.4	0.463	0.431	0.444						0.419
SW 900	0.683	0.696		0.543	0.438					0.783	0.875	0.798	0.772						
